We go through 1 compound from patent US11202850B2, “Compositions and methods for inhibiting inflammation” (THE UNIVERSITY OF MEMPHIS RESEARCH FOUNDATION, priority 2018, dated 2021).

The target in test [1] is T1, PAD4 (Homo sapiens, UniProt Q9UM07).
T1 construct: purchased
The experiment in a line: PAD4 Inhibitor Screening Assay: Cl-amidine activity after exposure to electrospinning solvent HFP. Type of test: biochemical. An excerpt: The log transform of molarity against average fluorescent intensity was plotted for each concentration (FIG. 6).
As the concentration of drug increases, the relative fluorescence decreases, signifying an increase in the inhibition of PAD4. […] However, the drug was still active producing a sigmoidal curve similar to that of the HBSS samples.
In addition to determining the activity of Cl—Am, the samples exposed to HFP were used to create a standard curve for quantifying unknown Cl—Am concentrations. The four-parameter logistic regression of the HFP exposed samples (Equation 1, x=logarithmic transform of Cl—Am concentration and y=relative fluorescence) has an R2-value of 0.996, and there is no evidence of an inadequate model from the lack of fit test (p=0.28).
Lower fluorescence indicated greater inhibition of PAD4. No evidence of lack of fit (p=0.28) was found for the four-parameter regression of HFP exposed samples. […] This provided a standard curve for quantifying unknown Cl-amidine from elution studies.

Test [2] relates to fresh human peripheral blood neutrophils. Nature of the test: NETosis on Cl-amidine eluting templates in vitro (DAPI/SYTOX Green BG ratio). Type of test: cell-based. As for the experimental part:
10 mm diameter punches of the templates (n=4) were placed in a 48-well culture plate and disinfected by UV irradiation. Isolated peripheral neutrophils from whole blood were suspended in sterile HBSS and used to seed templates with 600,000 cells in 250 μL of HBSS and cultured for 3 and 6 hours under standard conditions. Cellularized templates were then fixed in 10% buffered formalin and fluorescence quantification of NETs was carried out. Templates with 100 nM SYTOX Green for extracellular DNA followed by DAPI fixed cell nuclei stain at stock concentration (FIGS. 9A, 9B, 10A, 10B, and 11A). The ratio of DAPI (blue) to SYTOX green (BG ratio) pixels per image using MATLAB 2012a was quantified to determine degree of NETosis (FIGS. 12A and 12B).
Infrared scanning and quantification of citrullinated histone H3 (CitH3) was carried out as follows. Templates were incubated with rabbit anti-human histone H3 (citrulline R2+R8+R17) antibody (ABCAM) followed by IRDye 800CW donkey anti-rabbit secondary antibody. The templates were scanned on the 800-nm channel of the Odyssey CLx Infrared Imaging System (LICOR) to generate full-thickness template fluorescence. Template-bound CitH3 was quantified with standard curve of CitH3 vacuum blotted onto a PVDF membrane. Statistical analysis was carried out as follows. […] Then the plot of relative fluorescence against mass of CitH3 was fit with a linear regression. […]

T1 sequence (Q9UM07 whole entry, species assumed): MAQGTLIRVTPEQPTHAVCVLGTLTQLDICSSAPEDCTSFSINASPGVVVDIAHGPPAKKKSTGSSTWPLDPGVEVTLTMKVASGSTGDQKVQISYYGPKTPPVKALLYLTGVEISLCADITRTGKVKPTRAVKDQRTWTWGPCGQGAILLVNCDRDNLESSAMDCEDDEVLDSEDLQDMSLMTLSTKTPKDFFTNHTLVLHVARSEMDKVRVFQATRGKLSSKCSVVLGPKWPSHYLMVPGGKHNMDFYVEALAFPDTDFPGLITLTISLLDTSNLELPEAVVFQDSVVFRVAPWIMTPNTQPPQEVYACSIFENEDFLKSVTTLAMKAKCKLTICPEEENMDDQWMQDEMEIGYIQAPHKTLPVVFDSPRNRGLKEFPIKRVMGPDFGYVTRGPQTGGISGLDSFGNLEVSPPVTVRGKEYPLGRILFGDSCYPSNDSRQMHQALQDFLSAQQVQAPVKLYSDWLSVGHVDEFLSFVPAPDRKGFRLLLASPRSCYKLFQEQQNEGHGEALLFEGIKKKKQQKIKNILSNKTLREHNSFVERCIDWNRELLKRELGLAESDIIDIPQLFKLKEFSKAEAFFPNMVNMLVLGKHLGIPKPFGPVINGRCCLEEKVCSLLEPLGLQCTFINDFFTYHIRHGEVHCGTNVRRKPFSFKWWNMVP

Regarding `N=C(CCl)NCCCC(NC(=O)c1ccccc1)C(N)=O` [Cl-amidine, N-α-benzoyl-N5-(2-chloro-1-iminoethyl)-L-ornithine amide], the “lowest concentration inhibiting PAD4 activity” value in test [1] (after exposure to HFP) stood at 1.2 µM. For the same compound, in test [1] (at two concentrations, 5.9 and 29.5 μM (p<0.0001)), the “activity against PAD4 after exposure to HFP versus HBSS samples” value is “significantly reduced its activity against PAD4”. The “efficacy after exposure to solvent HFP” value in test [1] (sigmoidal curve similar to HBSS samples) is on record as “retained efficacy after exposure to HFP”. For the same compound, the “effect of eluted Cl-amidine on NETosis” value in test [2] (on large diameter templates, 3 hours) is given as “opposite trend”; in test [2] (on small diameter templates, 3 hours (p<0.05)) it was “significantly attenuated NETosis”.
